Measured values published in patent US5767149A, “α-glycosyl-L-ascorbic acid, and it's preparation and uses” (priority 1989, dated 1998).

Columns and labels:
[1] = physchem; type: physicochemical; details: for Remaining ratio: 0 min, 70 uM; for remaining at 0.25 h, 70 µM / remaining at 0.5 h, 70 µM / remaining at 1 h, 70 µM / remaining at 21 h, 70 µM: water
Protocol: (c) 2-O-α-D-Glucosyl-L-ascorbic acid was compared respectively to the 6-O-α-D-glucosyl-L-ascorbic acid disclosed in Japanese Patent Publication No. 38,158/73, and L-ascorbic acid for their stability in aqueous solution. More particularly, each sample was adjusted to a concentration of 70 micromoles and to pH 7.0 or 2.0, placed in a cuvette, and measured for its absorbance at either 260 nm and pH 7.0 or at 245 nm and pH 2.0 while keeping the solution at 20° C. The remaining ratio (%) was calculated with the absorbance.

[2] = Solubility in solvents; type: physicochemical
[3] = Coloring reaction: direct reducing activity on 2,6-dichlorophenolindophenol
[4] = test system: α-glucosidase; experiment: Hydrolysis by α-glucosidase; type: biochemical; details: forms L-ascorbic acid and D-glucose, molar ratio 1:1
Protocol: (§1) (a) Hydrolyzable by α-glucosidase or by treatment with 1N hydrochloric acid at 100° C. for 5 minutes to form L-ascorbic acid and D-glucose at a molar ratio of 1:1.

[5] = test system: β-glucosidase; experiment: Hydrolysis by β-glucosidase; type: biochemical
Source text: (b) Unhydrolyzable by β-glucosidase.

[6] = Hydrolysis by 1N hydrochloric acid at 100° C.; type: physicochemical; details: 5 minutes
Protocol: as §1

[7] = test system: cytochrome C; experiment: Reducing activity on cytochrome C; type: biochemical; details: for Reducing activity on cytochrome C: intact sample, 10 microliters of 10 mM, pH 7.8
[8] = test system: human fibroblast cell; experiment: Collagenic activity in human fibroblast cell; type: cell-based; details: 0.25 mM, 24 hours
Protocol: (b) Collagenic activity 2-O-α-D-Glucosyl-L-ascorbic acid, 6-O-α-D-glucosyl-L-ascorbic acid and L-ascorbic acid were tested for their collagenic activity. A human fibroblast cell, cell density of 7×10^4 cells/plate, was cultured in Eagle's minimal essential medium supplemented with 10% FCS for 1 week, added with 4 μCi/ml ^3 H-proline, 20 μg/ml of β-aminopropionitrile and 0.25 mM of either sample, and cultured for an additional 24 hours. The resultant was then added with 10 w/v % trichloroacetic acid to recover the collagenous element in the culture, followed by lyophilization. The resultant specimen was dissolved, and the solution was adjusted to an appropriate pH, treated with a collagenase (Type III) at 37° C. for 90 minutes, and centrifuged. Collagenic activity was estimated by determining the radio activity in the supernatant.

[9] = test system: dd mice; experiment: Acute toxicity, oral; type: in vivo, mouse
Source text: A high-purity α-D-glucosyl-L-ascorbic acid specimen, prepared by the method in Experiment 2(2), was orally administered to 7 week-old dd mice for acute toxicity test. As the result, no mouse died when administered with up to […] of the specimen, and higher dose was difficult.

O=C1O[C@H]([C@@H](O)CO)C(O)=C1O[C@H]1O[C@H](CO)[C@@H](O)[C@H](O)[C@H]1O [2-O-α-D-glucosyl-L-ascorbic acid]
Stability in aqueous solution [1]: extremely stable in aqueous solution | Remaining ratio ([1]; pH 2): 100% | Remaining ratio ([1]; pH 7): 100% | remaining at 0.25 h, 70 µM ([1]; pH 2): 100% | remaining at 0.5 h, 70 µM ([1]; pH 2): 100% | remaining at 1 h, 70 µM ([1]; pH 2): 100% | remaining at 21 h, 70 µM ([1]; pH 2): 100% | remaining at 0.25 h, 70 µM ([1]; pH 7): 100% | remaining at 0.5 h, 70 µM ([1]; pH 7): 100% | remaining at 1 h, 70 µM ([1]; pH 7): 100% | remaining at 21 h, 70 µM ([1]; pH 7): 100% | Solubility ([2]; 0.1N acetic acid): Readily soluble | Solubility ([2]; 0.1N sodium hydroxide): Readily soluble | Solubility ([2]; benzene): insoluble | Solubility ([2]; chloroform): insoluble | Solubility ([2]; ethanol): soluble | Solubility ([2]; ether): insoluble | Solubility ([2]; methanol): soluble | Solubility ([2]; water): Readily soluble | Direct reducing activity (2,6-dichlorophenolindophenol) [3]: no direct reducing activity, and not reducing and decoloring 2,6-dichlorophenolindophenol | Hydrolysis by α-glucosidase [4]: Hydrolyzable | Hydrolysis by β-glucosidase [5]: Unhydrolyzable | Hydrolysis by acid [6]: Hydrolyzable | Reducing activity on cytochrome C after hydrolysis ([7]; hydrolyzed by α-glucosidase specimen): exhibited a reducing activity | Reducing activity on cytochrome C [7]: no reducing activity | Collagenic activity [8]: the same collagenic activity as that of L-ascorbic acid | Highest dose administered without death ([9]; 7 week-old dd mice, higher dose was difficult): ≥ 5 g | Mortality ([9]; 7 week-old dd mice, up to 5 g): no mouse died | Toxicity ([9]; dd mice): extremely low in toxicity

O=C1O[C@H]([C@@H](O)CO[C@H]2O[C@H](CO)[C@@H](O)[C@H](O)[C@H]2O)C(O)=C1O [6-O-α-D-glucosyl-L-ascorbic acid]
Remaining ratio ([1]; pH 2): 100% | Remaining ratio ([1]; pH 7): 100% | remaining at 0.25 h, 70 µM ([1]; pH 2): 99% | remaining at 0.5 h, 70 µM ([1]; pH 2): 98% | remaining at 1 h, 70 µM ([1]; pH 2): 91% | remaining at 21 h, 70 µM ([1]; pH 2): 55% | remaining at 0.25 h, 70 µM ([1]; pH 7): 58% | remaining at 0.5 h, 70 µM ([1]; pH 7): 36% | remaining at 1 h, 70 µM ([1]; pH 7): 17% | remaining at 21 h, 70 µM ([1]; pH 7): 8% | Reducing activity on cytochrome C [7]: unlike 6-O-α-D-glucosyl-L-ascorbic acid and L-ascorbic acid, 2-O-α-D-glucosyl-L-ascorbic acid exhibited no reducing activity | Collagenic activity [8]: slightly inferior in collagenic activity to that of 2-O-α-D-glucosyl-L-ascorbic acid

O=C1O[C@H]([C@@H](O)CO)C(O)=C1O [L-ascorbic acid]
Remaining ratio ([1]; pH 2): 100% | Remaining ratio ([1]; pH 7): 100% | remaining at 0.25 h, 70 µM ([1]; pH 2): 99% | remaining at 0.5 h, 70 µM ([1]; pH 2): 97% | remaining at 1 h, 70 µM ([1]; pH 2): 87% | remaining at 21 h, 70 µM ([1]; pH 2): 10% | remaining at 0.25 h, 70 µM ([1]; pH 7): 47% | remaining at 0.5 h, 70 µM ([1]; pH 7): 20% | remaining at 1 h, 70 µM ([1]; pH 7): 8% | remaining at 21 h, 70 µM ([1]; pH 7): 2% | Reducing activity on cytochrome C [7]: unlike 6-O-α-D-glucosyl-L-ascorbic acid and L-ascorbic acid, 2-O-α-D-glucosyl-L-ascorbic acid exhibited no reducing activity
